{"source": "patent US11813248B2", "about": "“NK-1 antagonist compositions and methods for use in treating depression” (priority 2017, dated 2023)", "key": {"[1]": {"test_system": "animal behavior simulating symptoms of depression", "settings": "high doses of pramipexole; cited from earlier work"}, "PD patients": {"test_system": "PD patients", "settings": "0.125 to 1.0 mg three times per day; 12 weeks; 296 PD patients; p=0.01 vs placebo; cited from earlier work"}, "[2]": {"test_system": "patients with a DSM-III-R diagnosis of major depression", "settings": "pramipexole 5.0 mg group, cited from earlier work"}, "subjects": {"test_system": "subjects", "settings": "in vivo", "procedure": "The study was a single center, single-blind study.\nOnce a subject had reached his/her first intolerable dose (FID-1), upward dose escalation was discontinued.\nAll other provisions of the protocol remained unchanged. Assessments were the same as those planned for the dose escalation day.\nOn each study day, subjects were followed up for up to 8 hours following drug administration for AEs, vital signs, ECGs. In addition, a laboratory panel was taken at screening and at the end of the study."}}, "data": [{"smiles": "CCCN[C@H]1CCc2nc(N)sc2C1", "note": "[Pramipexole, (S)-6-propylamino-4,5,6,7-tetrahydro-1,3-benzothiazole-2-amine]", "values": [{"measurement": "activity in tests of animal behavior simulating symptoms of depression", "setting": "[1]", "value": "active"}, {"measurement": "BDI scores decreased by an adjusted", "setting": "PD patients", "value": "5.9 (SE 0.5)"}, {"measurement": "patients who completed the study", "setting": "[2]; 8 weeks of treatment", "value": 42.4, "unit": "%"}, {"measurement": "improvement at week 8", "setting": "[2]; change from baseline, no p value because of high drop-out rate", "value": "−15.00"}, {"measurement": "patients reported nausea", "setting": "[2]", "value": 76, "unit": "%"}, {"measurement": "patients reported vomiting", "setting": "[2]", "value": 39, "unit": "%"}, {"measurement": "patients discontinued treatment prematurely", "setting": "[2]; mainly because of adverse events", "value": 57.6, "unit": "%"}, {"measurement": "dose limiting toxicity", "setting": "subjects", "value": "gastro-intestinal adverse events"}]}]}
